Consider 15 molecules from patent US8420851B2, “Selective TR-β 1 agonist” (Cadila Healthcare Limited, priority 2006, dated 2013).

In one data set the target is T1, TR-β (Homo sapiens, UniProt P10828).
T1 sequence (P10828 1-461): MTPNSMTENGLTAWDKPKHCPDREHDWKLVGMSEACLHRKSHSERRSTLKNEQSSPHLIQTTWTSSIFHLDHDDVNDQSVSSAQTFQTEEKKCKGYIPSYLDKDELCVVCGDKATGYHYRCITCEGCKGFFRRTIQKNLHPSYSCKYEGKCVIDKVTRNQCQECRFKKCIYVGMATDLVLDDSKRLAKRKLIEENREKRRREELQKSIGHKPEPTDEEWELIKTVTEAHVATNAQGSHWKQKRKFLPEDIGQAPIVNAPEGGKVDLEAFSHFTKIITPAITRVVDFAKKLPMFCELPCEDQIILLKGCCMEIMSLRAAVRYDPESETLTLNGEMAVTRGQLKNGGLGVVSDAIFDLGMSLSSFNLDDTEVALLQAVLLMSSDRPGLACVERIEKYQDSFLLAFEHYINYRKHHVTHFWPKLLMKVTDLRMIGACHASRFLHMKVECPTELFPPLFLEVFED
As to the kind of experiment: In vitro TR-β activity (in-house protocol). The class given is cell-based. As to conditions: for fold induction at 0.001 µM: Conc. 1 nM; for fold induction at 0.001 µM / fold induction at 0.01 µM / fold induction at 0.1 µM / fold induction at 1 µM: read-out: TR-β Fold Induction w.r.t T3(100 nm); for fold induction at 0.01 µM: Conc. 10 nM; for fold induction at 0.1 µM: Conc. 100 nM; for fold induction at 1 µM: Conc. 1000 nM. How it is done:
(§1) Invitro TR-α & TR-β activities were determined as per in-house protocols and the results of representative compounds are provided in tables 1 & 2 below as a proof of the efficacies of the novel class of compounds disclosed above.

Another data set concerns the target T2, TR-α (Homo sapiens, UniProt P10827).
T2 sequence (P10827 1-410 isoform P10827-2): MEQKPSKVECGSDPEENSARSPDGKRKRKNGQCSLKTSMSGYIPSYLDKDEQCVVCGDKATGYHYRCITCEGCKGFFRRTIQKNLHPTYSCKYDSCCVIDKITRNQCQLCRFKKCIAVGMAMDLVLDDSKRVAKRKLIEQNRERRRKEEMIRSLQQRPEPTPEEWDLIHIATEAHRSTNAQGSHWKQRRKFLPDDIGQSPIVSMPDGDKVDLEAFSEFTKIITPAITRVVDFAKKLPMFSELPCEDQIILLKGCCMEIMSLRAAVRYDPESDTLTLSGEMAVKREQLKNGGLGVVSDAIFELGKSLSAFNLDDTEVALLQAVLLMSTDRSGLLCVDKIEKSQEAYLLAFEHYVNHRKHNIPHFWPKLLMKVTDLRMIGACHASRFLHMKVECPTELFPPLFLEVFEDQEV
The data set can be described thus: In vitro TR-α activity (in-house protocol). Type of data set: cell-based. How it is done: as §1

Turning to `CCc1cc(Oc2c(Cl)cc(N(CC(=O)O)C(=O)Oc3ccc(O)cc3)cc2Cl)ccc1O` [Example 48, [[3,5-Dichloro-4-(3-ethyl-4-hydroxy-phenoxy)-phenyl]-(4-hydroxy-phenoxycarbonyl)-amino]-acetic acid], on TR-β, the fold induction at 0.001 µM is 9.02, the fold induction at 0.01 µM was found to be 19.4, the fold induction at 0.1 µM was determined as 47.7 and the fold induction at 1 µM is 37.6. Moreover, the “TR-α Fold Induction w.r.t T3(100 nm)” value on TR-α (Conc. 1 nM) is 08.16. For the same molecule, the “TR-α Fold Induction w.r.t T3(100 nm)” value on TR-α (Conc. 10 nM) came to 17.51. Besides, the “TR-α Fold Induction w.r.t T3(100 nm)” value at TR-α (Conc. 100 nM) is reported as 34.61. The “TR-α Fold Induction w.r.t T3(100 nm)” value on TR-α (Conc. 1000 nM) is recorded as 45.08.
On to `CCOC(=O)N(CC(=O)O)c1cc(Cl)c(Oc2ccc(O)c(C(C)(C)C)c2)c(Cl)c1` [Example 13, {[4-(3-tert-Butyl-4-hydroxy-phenoxy)-3,5-dichloro-phenyl]-ethoxycarbonyl-amino}-acetic acid], for which, at TR-β, the fold induction at 0.01 µM was 44.2, the fold induction at 0.1 µM is 80.6 and the fold induction at 1 µM was 75. Moreover, on TR-α (Conc. 10 nM), the “TR-α Fold Induction w.r.t T3(100 nm)” value was 49.80. Also, on TR-α (Conc. 100 nM), the “TR-α Fold Induction w.r.t T3(100 nm)” value is 96.60. Moreover, the “TR-α Fold Induction w.r.t T3(100 nm)” value on TR-α (Conc. 1000 nM) was determined as 72.90.
For the molecule `O=C(O)CN(C(=O)Oc1ccc(O)cc1)c1cc(Cl)c(Oc2ccc(O)c(C(=O)c3ccc(F)cc3)c2)c(Cl)c1` [Example 55, [{3,5-Dichloro-4-[3-(4-fluoro-benzoyl)-4-hydroxy-phenoxy]-phenyl}-(4-hydroxy-phenoxycarbonyl)-amino]-acetic acid], the half-maximal effective concentration (EC50) at TR-β is 0.0643 µM; on TR-α, 0.107 µM.
For the molecule `O=C(O)CN(C(=O)Oc1ccc(O)cc1)c1cc(Cl)c(Oc2ccc(O)c(S(=O)(=O)N3CCCCCC3)c2)c(Cl)c1` [Example 57, [{4-[3-(Azepane-1-sulfonyl)-4-hydroxy-phenoxy]-3,5-dichloro-phenyl}-(4-hydroxy-phenoxycarbonyl)-amino]-acetic acid], on TR-β, the fold induction at 0.001 µM came to 12.6, the fold induction at 0.01 µM was determined as 14.8, the fold induction at 0.1 µM amounted to 23.6 and the fold induction at 1 µM was determined as 62.5. Further, at TR-α (Conc. 1 nM), the “TR-α Fold Induction w.r.t T3(100 nm)” value was determined as 21.61. Moreover, the “TR-α Fold Induction w.r.t T3(100 nm)” value at TR-α (Conc. 10 nM) came out at 24.62. Also, on TR-α (Conc. 100 nM), the “TR-α Fold Induction w.r.t T3(100 nm)” value was 35.93. Also, the “TR-α Fold Induction w.r.t T3(100 nm)” value on TR-α (Conc. 1000 nM) is on record as 60.40.
`O=C(O)CN(C(=O)Oc1ccc(O)cc1)c1cc(Cl)c(Oc2ccc(O)c(C(O)c3ccc(Cl)cc3)c2)c(Cl)c1` (stereo not drawn) [Example 56, [(3,5-Dichloro-4-{3-[(4-chloro-phenyl)-hydroxy-methyl]-4-hydroxy-phenoxy}-phenyl)-(4-hydroxy-phenoxycarbonyl)-amino]-acetic acid]: the EC50 on TR-β turned out to be 0.0204 µM; on TR-α, 0.0134 µM.
In the case of `CCOC(=O)N(CC(=O)O)c1cc(Cl)c(Oc2ccc(O)c(C(=O)c3ccc(C(C)(C)C)cc3)c2)c(Cl)c1` [Example 24, ({4-[3-(4-tert-Butyl-benzoyl)-4-hydroxy-phenoxy]-3,5-dichloro-phenyl}-ethoxycarbonyl-amino)-acetic acid], at TR-β, the fold induction at 0.001 µM was found to be 20, the fold induction at 0.01 µM is 40, the fold induction at 0.1 µM is 100 and the fold induction at 1 µM was 75. At TR-α (Conc. 1 nM), the “TR-α Fold Induction w.r.t T3(100 nm)” value was found to be 10.00. Also, the “TR-α Fold Induction w.r.t T3(100 nm)” value at TR-α (Conc. 10 nM) was found to be 20.00. Further, the “TR-α Fold Induction w.r.t T3(100 nm)” value on TR-α (Conc. 100 nM) is reported as 50.00. Further, at TR-α (Conc. 1000 nM), the “TR-α Fold Induction w.r.t T3(100 nm)” value was 70.00.
For `CCOC(=O)N(CC(=O)O)c1cc(Cl)c(Oc2ccc(O)c(C(C)CC)c2)c(Cl)c1` (stereo not drawn) [Example 2, {[4-(3-sec-Butyl-4-hydroxy-phenoxy)-3,5-dichloro-phenyl]-ethoxycarbonyl-amino}-acetic acid], the values for the EC50 at TR-β and on TR-α were 0.162 µM and 0.119 µM, respectively.
Regarding `CCOC(=O)N(CC(=O)O)c1cc(Cl)c(Oc2ccc(O)c(C(=O)c3ccc(Cl)s3)c2)c(Cl)c1` [Example 17, ({3,5-Dichloro-4-[3-(5-chloro-thiophene-2-carbonyl)-4-hydroxy-phenoxy]-phenyl}-ethoxycarbonyl-amino)-acetic acid], on TR-β, the fold induction at 0.01 µM was found to be 27.7, the fold induction at 0.1 µM came to 72.8 and the fold induction at 1 µM was 77.9. Also, the “TR-α Fold Induction w.r.t T3(100 nm)” value on TR-α (Conc. 10 nM) turned out to be 21.19. Moreover, the “TR-α Fold Induction w.r.t T3(100 nm)” value at TR-α (Conc. 100 nM) turned out to be 51.82. In addition, at TR-α (Conc. 1000 nM), the “TR-α Fold Induction w.r.t T3(100 nm)” value came out at 53.12.
In the case of `CCOC(=O)N(CC(=O)O)c1cc(Cl)c(Oc2ccc(O)c(C(=O)c3ccc(Cl)cc3)c2)c(Cl)c1` [Example 20, ({3,5-Dichloro-4-[3-(4-chloro-benzoyl)-4-hydroxy-phenoxy]-phenyl}-ethoxycarbonyl-amino)-acetic acid], on TR-β, the fold induction at 0.001 µM was 19.9, the fold induction at 0.01 µM worked out at 40.7, the fold induction at 0.1 µM is 87.7 and the fold induction at 1 µM is 81.2. Also, the “TR-α Fold Induction w.r.t T3(100 nm)” value at TR-α (Conc. 1 nM) was 10.42. In addition, the “TR-α Fold Induction w.r.t T3(100 nm)” value on TR-α (Conc. 10 nM) is recorded as 15.74. The “TR-α Fold Induction w.r.t T3(100 nm)” value at TR-α (Conc. 100 nM) was 21.47. The “TR-α Fold Induction w.r.t T3(100 nm)” value at TR-α (Conc. 1000 nM) amounted to 18.49.
As for `CCOC(=O)N(CC(=O)O)c1cc(Cl)c(Oc2ccc(O)c(C(=O)c3ccc(F)cc3)c2)c(Cl)c1` [Example 15, ({3,5-Dichloro-4-[3-(4-fluoro-benzoyl)-4-hydroxy-phenoxy]-phenyl}-ethoxycarbonyl-amino)-acetic acid], on TR-β, the fold induction at 0.01 µM is 23.5. The fold induction at 0.1 µM on TR-β came to 70.5. The fold induction at 1 µM at TR-β was 66.8. For the same molecule, the “TR-α Fold Induction w.r.t T3(100 nm)” value on TR-α (Conc. 10 nM) turned out to be 11.34; at TR-α (Conc. 100 nM) it was 39.66; on TR-α (Conc. 1000 nM), 33.74.
As to `Cc1cc(N(CC(=O)O)CC(=O)O)cc(C)c1Oc1ccc(O)c(C(C)C)c1` [Example 37, {Carboxymethyl-[4-(4-hydroxy-3-isopropyl-phenoxy)-3,5-dimethyl-phenyl]-amino}-acetic acid], on TR-β, the fold induction at 0.001 µM stood at 21.2, the fold induction at 0.01 µM was 66.7, the fold induction at 0.1 µM is 125 and the fold induction at 1 µM stood at 95.6. The “TR-α Fold Induction w.r.t T3(100 nm)” value at TR-α (Conc. 1 nM) was 14.93. The “TR-α Fold Induction w.r.t T3(100 nm)” value at TR-α (Conc. 10 nM) amounted to 40.84. The “TR-α Fold Induction w.r.t T3(100 nm)” value at TR-α (Conc. 100 nM) is 71.78. In addition, the “TR-α Fold Induction w.r.t T3(100 nm)” value on TR-α (Conc. 1000 nM) stood at 63.71.
In the case of `O=C(O)CN(C(=O)Oc1ccc(O)cc1)c1cc(Cl)c(Oc2ccc(O)c(-c3ccccc3)c2)c(Cl)c1` [Example 49, [[3,5-Dichloro-4-(6-hydroxy-biphenyl-3-yloxy)-phenyl]-(4-hydroxy-phenoxycarbonyl)-amino]-acetic acid], the results for the EC50 on TR-β and on TR-α were 0.0103 µM and 0.038 µM, respectively.
In the case of `CN(C)S(=O)(=O)c1cc(Oc2c(Cl)cc(N(CC(=O)O)C(=O)Oc3ccc(O)cc3)cc2Cl)ccc1O` [Example 38, [[3,5-Dichloro-4-(3-dimethylsulfamoyl-4-hydroxy-phenoxy)-phenyl]-(4-hydroxy-phenoxycarbonyl)-amino]-acetic acid], at TR-β, the fold induction at 0.001 µM amounted to 12.3, the fold induction at 0.01 µM was 16.9, the fold induction at 0.1 µM was found to be 43.5 and the fold induction at 1 µM is 81.4. Moreover, the “TR-α Fold Induction w.r.t T3(100 nm)” value at TR-α (Conc. 1 nM) is listed as 09.36. Besides, on TR-α (Conc. 10 nM), the “TR-α Fold Induction w.r.t T3(100 nm)” value is 13.61. For the same molecule, at TR-α (Conc. 100 nM), the “TR-α Fold Induction w.r.t T3(100 nm)” value was determined as 25.32. The “TR-α Fold Induction w.r.t T3(100 nm)” value on TR-α (Conc. 1000 nM) was 41.59.
Turning to `CCC(C)c1cc(Oc2c(Cl)cc(N(CC(=O)O)CC(=O)O)cc2Cl)ccc1O` (stereo not drawn) [Example 26, {[4-(3-sec-Butyl-4-hydroxy-phenoxy)-3,5-dichloro-phenyl]-carboxymethyl-amino}-acetic acid], the figures for the EC50 on TR-β and at TR-α were 0.0281 µM and 0.176 µM, respectively.
As for `Cc1cccc(C(=O)c2cc(Oc3c(Cl)cc(N(CC(=O)O)C(=O)Oc4ccc(O)cc4)cc3Cl)ccc2O)c1` [Example 66, [{3,5-Dichloro-4-[4-hydroxy-3-(3-methyl-benzoyl)-phenoxy]-phenyl}-(4-hydroxy-phenoxycarbonyl)-amino]-acetic acid], at TR-β, the fold induction at 0.001 µM turned out to be 36.7, the fold induction at 0.01 µM worked out at 25.9, the fold induction at 0.1 µM is 40.7 and the fold induction at 1 µM was 55.2. Besides, the “TR-α Fold Induction w.r.t T3(100 nm)” value on TR-α (Conc. 1 nM) is recorded as 20.56. In addition, the “TR-α Fold Induction w.r.t T3(100 nm)” value on TR-α (Conc. 10 nM) amounted to 15.36. Also, on TR-α (Conc. 100 nM), the “TR-α Fold Induction w.r.t T3(100 nm)” value was 18.11. In addition, the “TR-α Fold Induction w.r.t T3(100 nm)” value at TR-α (Conc. 1000 nM) is 25.75.

For orientation: EC50 means the concentration that produces a half-maximal response.
